Results reported in PubChem BioAssay AID1597 (NINDS Approved Drug Screening Program, 2009).
Records with an inconclusive call do not appear.

test system: Drosophila SCA1 polyglutamine model, toxicity suppression; assay: Reduction of SCA1 polyglutamine toxicity, EC50 from dose response in whole drosophila (AID 1597)

Point of comparison: `NC(Cc1cc(I)c(Oc2ccc(O)c(I)c2)c(I)c1)C(=O)O` (centres undefined), EC50 5000 nM. Against it:
- C[C@@H]1O[C@@H](O[C@H]2[C@H](Oc3cc(O)c4c(c3)O[C@H](c3ccc(O)cc3)CC4=O)O[C@H](CO)[C@@H](O)[C@@H]2O)[C@H](O)[C@H](O)[C@H]1O — the same, 5000 nM
- OCC(S)CS (centres undefined) — 17-fold lower, 300 nM
- N#C/C(=C\c1ccc(O)cc1)C(=O)O — 100-fold lower, 50 nM
- CC(=O)OCC(=O)[C@H]1CCC2C3CCC4=CC(=O)CC[C@]4(C)C3CC[C@@]21C (some centres undefined) — 1.7-fold lower, 3000 nM
- CC(N)CCCC(C)(C)O (centres undefined) — 100-fold lower, 50 nM
- C[N+](C)(C)CC(=O)[O-] — 1.7-fold lower, 3000 nM
- Cc1cc(C(C)(C)C)cc(C)c1CC1=NCCN1 — 20-fold lower, 250 nM
- NS(=O)(=O)c1cc(C2(O)NC(=O)c3ccccc32)ccc1Cl (centres undefined) — the same, 5000 nM
- CN1CCOC(c2ccccc2)c2ccccc2C1 (centres undefined) — 100-fold lower, 50 nM
- C[N+](C)(C)CCOC(N)=O — 1.7-fold lower, 3000 nM
- C=C1C2CC[C@H]3[C@]4(C)C[C@H](OC5OC(CO)C(OS(=O)(=O)O)C(OS(=O)(=O)O)C5OC(=O)CC(C)C)C[C@@H](C(=O)O)[C@H]4CC[C@]3(C2)[C@H]1O (some centres undefined) — 22-fold lower, 225 nM
- C[C@@H]1CC2C3CCC4=CC(=O)C=C[C@]4(C)[C@@]3(F)[C@@H](O)C[C@]2(C)[C@@]1(O)C(=O)COP(=O)(O)O (some centres undefined) — 6.7-fold lower, 750 nM
- CCCCCCCCCCCCCCCC(=O)OC/C=C(C)/C=C/C=C(C)/C=C/C1=C(C)CCCC1(C)C — 18-fold lower, 275 nM
